Test results as given in patent US20040221332A1, “Plant growth regulating genes, proteins and uses thereof” (priority 2001, published 2004).
Where two headings read alike, the source gives them in different places.

Columns and labels:
[1] = system: OsGREP1 transcripts; assay: RNA gel blot of OsGREP1 mRNA in deepwater rice internode sections treated with cycloheximide; set-up: species or system Oryza sativa
Experimental: (§1) Analysis of hormone and inhibitor effects was performed using excised stem segments containing the youngest growth-responsive internode (Raskin & Kende, 1984). Growth of the stem sections was induced by application of 50 μM GA3 for the times indicated. To inhibit protein synthesis, stem sections were incubated in aqueous solutions of cycloheximide for the times indicated. Plant tissue for RNA extraction was harvested on ice and immediately after harvest frozen in liquid nitrogen. Meristematic tissue was harvested from 0 to 5 mm above the second youngest node, i.e. the intercalary meristem (IM). Cells which are predominately involved in elongation were harvested from 5 to 15 mm above the second youngest node, i.e. the elongation zone (EZ) and differentiated tissue was harvested from the oldest part of the internode below the youngest node, i.e. the differentiation zone (DZ).
To determine gene expression under different conditions and in different rice tissues, mRNA abundance of OsGREP1 was analyzed by RNA gel blot hybridization. Total RNA was isolated using the TRIzol reagent (Gibco BRL) and precipitated with 4M LiCl as described (Puissant & Houdebine, 1990). […]
Gene expression of OsGREP1 was also determined by measuring mRNA abundance in IM sections of deepwater rice internodes treated with cycloheximide (CHX) at 0, 0.02, 2, and 20 μg/ml (FIG. 9). […]

[2] = system: protein synthesis; settings: maize, 20 μM CHX; cited from earlier work
[3] = system: protein synthesis; settings: alfalfa, 150 μM; cited from earlier work
[4] = system: OsGREP1 transcript levels; assay: RNA gel blot of OsGREP1 mRNA in deepwater rice stem sections treated with gibberellin; set-up: species or system Oryza sativa; settings: 50 μM GA3, stem sections, meristematic zone, within 30 minutes and again 15 h after onset
Experimental: as §1, with “Cells which are predominately involved in elongation were harvested from 5 to 15 mm above the second youngest node, i.e. the elongation zone (EZ) and differentiated tissue was harvested from the oldest part of the internode below the youngest node, i.e. the differentiation zone (DZ).” left out
To determine gene expression under different conditions and in different rice tissues, mRNA abundance of OsGREP1 was analyzed by RNA gel blot hybridization. […]
mRNA abundance of OsGREP1 was also analyzed in different tissues of adult rice plants and seedlings and in suspension-cultured rice cells by RNA gel blot analysis (FIG. 7). […] OsGREP1 mRNA can also be detected in suspension-cultured cells but at lower levels than in all other tissues. […] Stem sections containing the IM and EZ of the internode were treated with 50 μM GA3 and analyzed for expression of OsGREP1 by RNA gel blot hybridization 0, […], 1, 3, 6 and 15 h after treatment (FIG. 8).

[5] = system: Arabidopsis thaliana; assay: Phenotypic characterization of transgenic plants transformed with OsPSK (digital imaging of rosette and inflorescence); format: in vivo
Experimental: Of 11 different transgenic plant lines of Arabidopsis thaliana (named AE0017, AE0018, AE0019, AE0021, AE0022, AE0023, AE0024, AE0025, AE0026, AE0027 and Os-PSK) 500 mg of seeds is placed in 50 ml plastic tubes. 27 ml of a 0.2% agar solution is added and mixed to suspend the seeds. The said tubes are stored at 4° C. for 3 days to release dormancy. Subsequently, the suspension of seeds was evenly dispensed as drops of 50 μl on a 50 cm by 30 cm tray containing a mixture of sand and soil in a ratio of 1 to 2.
The trays were placed in the greenhouse under the following conditions: 22° C. at day time, 18° C. at night, 60% RH, 20 hours of photoperiod, subirrigation once a day with water during 15 min. The 4th day and the 10th day after sowing, the seedlings were sprayed with an herbicide solution. The 14th day after sowing, 30 resistant seedlings of each transgenic line were transplanted in individual pots with a diameter of 10 cm containing a mixture of sand and peat in a ratio of 1 to 3.
Said pots are then placed in the greenhouse under the same conditions as described for the trays. The pots are subirrigated during 15 min. once a week, or more if needed. The 14th, 18th, 21st, 28th, 32nd and 39th day after sowing, the rosettes of each plant were photographed using a digital camera and the pictures were stored for further analysis.
The 32nd, 38th, 41 st, 46th, 49th, and 53rd day after sowing, the inflorescence of each plant was photographed equally using a digital camera and the pictures were stored for further analysis. The number of pixels corresponding to plant tissues was recorded on each picture, converted to square cm and used as a measurement of plant size.

Question: For `C[C@@H]1C[C@@H]([C@H](O)CC2CC(=O)NC(=O)C2)C(=O)[C@@H](C)C1` [cycloheximide], which OsGREP1 transcripts ([1]; IM sections of deepwater rice internodes, 20 μg/ml (corresponds to 70 μM) CHX) is on record?
Answer: induced

Question: And the “cycloheximide concentration at which OsGREP1 transcripts accumulate” value ([1]; stem sections of deepwater rice, 0 to 20 μg/ml tested)?
Answer: ≥ 0.2 µg/mL

Question: What about the “inhibition of protein synthesis” value [2] of the same molecule?
Answer: 23%

Question: And the “inhibition of protein synthesis” value [3]?
Answer: 90%

Question: Which OsGREP1 transcript levels [4] does the source give for `C=C1C[C@]23C[C@@]1(O)CC[C@H]2[C@@]12C=C[C@H](O)[C@@](C)(C(=O)O1)[C@H]2[C@@H]3C(=O)O` [GA3, gibberellic acid] here?
Answer: slight and transient increase

Question: And the OsGREP1 transcript levels ([4]; listed as GA)?
Answer: induced

B1: OsPSK: rice growth regulating polypeptide, prepro-phytosulfokine (SEQ ID NO 104/105), overexpressed in transgenic Arabidopsis under sunflower ubiquitin promoter (protein, listed as Oryza sativa)
chain: MVNPGRTARALCLLCLALLLLGQDTHSRKLLLQEKHSHGVGNGTTTTQEPSRENGGSTGSNNNGQLQFDSAKWEEFHTDYIYTQDVKNP
Question: For B1, which “ratio between size of inflorescence before harvest and maximal measured size of the rosette” value ([5]; OsPSK plants vs other transgenic plant lines in the same experiment) is on record?
Answer: significantly higher

Question: What about the rosette size ([5]; OsPSK transgenic line vs other transgenic lines) of the same molecule?
Answer: slightly bigger

Question: And the plant size ([5]; OsPSK transgenic line vs the other transgenic plant lines in the experiment)?
Answer: on average the biggest plants
